ChEMBL document CHEMBL2413064, “Synthesis and α-glucosidase inhibitory activity evaluation of N-substituted aminomethyl-β-d-glucopyranosides” (Bioorg Med Chem, 2013)

These compounds were tested against T1, Sucrase-isomaltase, intestinal (Rattus norvegicus, UniProt P23739) (assay: Inhibition of rat intestinal sucrase using sucrose as substrate assessed as D-glucose release from substrate preincubated for 15 mins measured after 60 mins).
T1 sequence (P23739 1-1013 limits assumed): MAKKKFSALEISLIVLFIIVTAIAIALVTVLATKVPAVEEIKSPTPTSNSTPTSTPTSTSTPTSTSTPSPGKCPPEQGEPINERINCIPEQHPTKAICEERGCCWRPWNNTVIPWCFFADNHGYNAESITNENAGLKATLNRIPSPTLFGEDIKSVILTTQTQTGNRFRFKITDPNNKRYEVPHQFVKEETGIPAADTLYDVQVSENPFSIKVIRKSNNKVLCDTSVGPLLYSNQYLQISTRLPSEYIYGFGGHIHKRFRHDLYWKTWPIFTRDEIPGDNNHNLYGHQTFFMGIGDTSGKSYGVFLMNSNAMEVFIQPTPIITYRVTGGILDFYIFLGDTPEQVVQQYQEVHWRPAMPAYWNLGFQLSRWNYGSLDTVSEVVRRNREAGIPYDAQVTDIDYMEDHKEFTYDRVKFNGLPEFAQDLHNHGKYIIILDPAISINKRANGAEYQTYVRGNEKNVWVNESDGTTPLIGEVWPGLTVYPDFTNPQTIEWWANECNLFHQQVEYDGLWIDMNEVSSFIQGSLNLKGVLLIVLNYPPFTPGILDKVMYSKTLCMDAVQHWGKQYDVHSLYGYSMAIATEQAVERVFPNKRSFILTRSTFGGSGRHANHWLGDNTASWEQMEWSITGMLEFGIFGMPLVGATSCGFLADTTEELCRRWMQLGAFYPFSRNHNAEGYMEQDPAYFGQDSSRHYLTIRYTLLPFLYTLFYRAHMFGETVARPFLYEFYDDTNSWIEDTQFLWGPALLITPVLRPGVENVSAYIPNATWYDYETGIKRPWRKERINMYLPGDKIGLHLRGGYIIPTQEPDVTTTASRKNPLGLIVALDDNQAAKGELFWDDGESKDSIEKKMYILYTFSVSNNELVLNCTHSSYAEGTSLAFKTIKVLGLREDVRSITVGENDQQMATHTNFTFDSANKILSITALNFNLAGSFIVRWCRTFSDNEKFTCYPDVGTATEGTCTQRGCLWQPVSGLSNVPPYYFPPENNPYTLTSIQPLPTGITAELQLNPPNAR
T1 sequence (P23739 1014-1841 limits assumed): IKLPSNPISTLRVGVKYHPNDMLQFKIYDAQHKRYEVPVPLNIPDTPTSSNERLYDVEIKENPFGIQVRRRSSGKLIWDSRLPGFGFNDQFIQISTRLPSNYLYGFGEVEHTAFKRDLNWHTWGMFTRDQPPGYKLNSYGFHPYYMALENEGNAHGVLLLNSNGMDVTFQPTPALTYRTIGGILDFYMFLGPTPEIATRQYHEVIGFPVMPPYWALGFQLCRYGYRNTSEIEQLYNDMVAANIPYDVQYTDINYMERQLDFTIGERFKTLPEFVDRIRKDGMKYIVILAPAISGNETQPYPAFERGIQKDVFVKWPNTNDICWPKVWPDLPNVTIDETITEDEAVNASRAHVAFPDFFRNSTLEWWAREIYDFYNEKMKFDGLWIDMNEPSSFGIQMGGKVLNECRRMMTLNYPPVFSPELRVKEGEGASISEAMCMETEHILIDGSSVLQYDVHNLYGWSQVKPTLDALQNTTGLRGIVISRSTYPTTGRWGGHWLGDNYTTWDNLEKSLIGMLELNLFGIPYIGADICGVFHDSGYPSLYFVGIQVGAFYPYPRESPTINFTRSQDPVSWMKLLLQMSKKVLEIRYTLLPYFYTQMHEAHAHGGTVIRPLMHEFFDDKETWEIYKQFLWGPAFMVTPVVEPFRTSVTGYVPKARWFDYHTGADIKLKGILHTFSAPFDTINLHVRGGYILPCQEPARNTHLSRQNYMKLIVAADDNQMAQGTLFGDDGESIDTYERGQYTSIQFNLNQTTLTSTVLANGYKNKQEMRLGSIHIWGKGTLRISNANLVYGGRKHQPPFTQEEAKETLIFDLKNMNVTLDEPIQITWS

SMILES | IC50
Cc1ccc(S(=O)(=O)NC[C@@H]2O[C@H](CO)[C@@H](O)[C@H](O)[C@H]2O)cc1 | 1420 µM
OC[C@H]1O[C@@H](CNC/C=C/c2ccccc2)[C@H](O)[C@@H](O)[C@@H]1O | 97.4 µM
O=C(NC[C@@H]1O[C@H](CO)[C@@H](O)[C@H](O)[C@H]1O)c1ccccc1 | > 2000 µM
O=C(NC[C@@H]1O[C@H](CO)[C@@H](O)[C@H](O)[C@H]1O)c1ccc(Cl)cc1Cl | 991 µM
O=C(NC[C@@H]1O[C@H](CO)[C@@H](O)[C@H](O)[C@H]1O)c1ccc(F)cc1 | 403 µM
O=C(NC[C@@H]1O[C@H](CO)[C@@H](O)[C@H](O)[C@H]1O)c1cccc([N+](=O)[O-])c1 | 381 µM
O=C(NC[C@@H]1O[C@H](CO)[C@@H](O)[C@H](O)[C@H]1O)c1ccc([N+](=O)[O-])cc1 | 1000 µM
O=C(NC[C@@H]1O[C@H](CO)[C@@H](O)[C@H](O)[C@H]1O)c1ccccc1O | > 2000 µM
COc1ccccc1C(=O)NC[C@@H]1O[C@H](CO)[C@@H](O)[C@H](O)[C@H]1O | 1090 µM
O=C(NC[C@@H]1O[C@H](CO)[C@@H](O)[C@H](O)[C@H]1O)c1ccc(O)cc1 | 1640 µM
COc1ccc(C(=O)NC[C@@H]2O[C@H](CO)[C@@H](O)[C@H](O)[C@H]2O)cc1 | 795 µM
COc1ccc(C(=O)NC[C@@H]2O[C@H](CO)[C@@H](O)[C@H](O)[C@H]2O)c(OC)c1 | > 2000 µM
CC(=O)Oc1ccc(C(=O)NC[C@@H]2O[C@H](CO)[C@@H](O)[C@H](O)[C@H]2O)cc1 | 160 µM
O=C(NC[C@@H]1O[C@H](CO)[C@@H](O)[C@H](O)[C@H]1O)c1ccco1 | 770 µM
O=C(NC[C@@H]1O[C@H](CO)[C@@H](O)[C@H](O)[C@H]1O)c1cccs1 | > 2000 µM
CC(=O)Oc1cc(C(=O)NC[C@@H]2O[C@H](CO)[C@@H](O)[C@H](O)[C@H]2O)cc(OC(C)=O)c1OC(C)=O | 15.6 µM
O=C(/C=C/c1ccccc1)NC[C@@H]1O[C@H](CO)[C@@H](O)[C@H](O)[C@H]1O | 314 µM

SMILES | IC50
O=C(/C=C/c1ccc(O)cc1)NC[C@@H]1O[C@H](CO)[C@@H](O)[C@H](O)[C@H]1O | 405 µM
CC(=O)Oc1ccc(/C=C/C(=O)NC[C@@H]2O[C@H](CO)[C@@H](O)[C@H](O)[C@H]2O)cc1 | 155 µM
COc1cc(/C=C/C(=O)NC[C@@H]2O[C@H](CO)[C@@H](O)[C@H](O)[C@H]2O)ccc1O | 253 µM
CC(=O)Oc1ccc(/C=C/C(=O)NC[C@@H]2O[C@H](CO)[C@@H](O)[C@H](O)[C@H]2O)cc1OC(C)=O | 10.4 µM
OC[C@H]1O[C@@H](CNCc2ccccc2)[C@H](O)[C@@H](O)[C@@H]1O | 270 µM
OC[C@H]1O[C@@H](CNCc2ccc(Cl)cc2Cl)[C@H](O)[C@@H](O)[C@@H]1O | 154 µM
OC[C@H]1O[C@@H](CNCc2ccc(Cl)c(Cl)c2)[C@H](O)[C@@H](O)[C@@H]1O | 144 µM
OC[C@H]1O[C@@H](CNCc2ccc(F)cc2)[C@H](O)[C@@H](O)[C@@H]1O | 301 µM
O=[N+]([O-])c1cccc(CNC[C@@H]2O[C@H](CO)[C@@H](O)[C@H](O)[C@H]2O)c1 | 627 µM
OC[C@H]1O[C@@H](CNCc2ccccc2O)[C@H](O)[C@@H](O)[C@@H]1O | 181 µM
OC[C@H]1O[C@@H](CNCc2ccc(O)cc2)[C@H](O)[C@@H](O)[C@@H]1O | 124 µM
COc1ccc(CNC[C@@H]2O[C@H](CO)[C@@H](O)[C@H](O)[C@H]2O)cc1 | 179 µM
COc1ccc(CNC[C@@H]2O[C@H](CO)[C@@H](O)[C@H](O)[C@H]2O)cc1O | 186 µM
COc1cc(CNC[C@@H]2O[C@H](CO)[C@@H](O)[C@H](O)[C@H]2O)ccc1O | 186 µM
COc1ccc(CNC[C@@H]2O[C@H](CO)[C@@H](O)[C@H](O)[C@H]2O)c(OC)c1 | 105 µM
COc1ccc(C(C)NC[C@@H]2O[C@H](CO)[C@@H](O)[C@H](O)[C@H]2O)cc1O (stereo partly specified) | 107 µM
OC[C@H]1O[C@@H](CNCc2cccs2)[C@H](O)[C@@H](O)[C@@H]1O | 173 µM

Each compound was assayed against Maltase-glucoamylase, intestinal (Rattus norvegicus).

SMILES | IC50
Cc1ccc(S(=O)(=O)NC[C@@H]2O[C@H](CO)[C@@H](O)[C@H](O)[C@H]2O)cc1 | 476 µM
O=C(NC[C@@H]1O[C@H](CO)[C@@H](O)[C@H](O)[C@H]1O)c1ccccc1 | 842 µM
O=C(NC[C@@H]1O[C@H](CO)[C@@H](O)[C@H](O)[C@H]1O)c1ccc(Cl)cc1Cl | 585 µM
O=C(NC[C@@H]1O[C@H](CO)[C@@H](O)[C@H](O)[C@H]1O)c1ccc(F)cc1 | 464 µM
O=C(NC[C@@H]1O[C@H](CO)[C@@H](O)[C@H](O)[C@H]1O)c1ccc([N+](=O)[O-])cc1 | 846 µM
O=C(NC[C@@H]1O[C@H](CO)[C@@H](O)[C@H](O)[C@H]1O)c1ccccc1O | 1010 µM
COc1ccccc1C(=O)NC[C@@H]1O[C@H](CO)[C@@H](O)[C@H](O)[C@H]1O | 719 µM
O=C(NC[C@@H]1O[C@H](CO)[C@@H](O)[C@H](O)[C@H]1O)c1ccc(O)cc1 | 758 µM
COc1ccc(C(=O)NC[C@@H]2O[C@H](CO)[C@@H](O)[C@H](O)[C@H]2O)cc1 | 831 µM
CC(=O)Oc1ccc(C(=O)NC[C@@H]2O[C@H](CO)[C@@H](O)[C@H](O)[C@H]2O)cc1 | 165 µM
O=C(NC[C@@H]1O[C@H](CO)[C@@H](O)[C@H](O)[C@H]1O)c1cccs1 | 445 µM
CC(=O)Oc1cc(C(=O)NC[C@@H]2O[C@H](CO)[C@@H](O)[C@H](O)[C@H]2O)cc(OC(C)=O)c1OC(C)=O | 7.7 µM
COc1cc(/C=C/C(=O)NC[C@@H]2O[C@H](CO)[C@@H](O)[C@H](O)[C@H]2O)ccc1O | 382 µM
OC[C@H]1O[C@@H](CNCc2ccccc2)[C@H](O)[C@@H](O)[C@@H]1O | 1330 µM
OC[C@H]1O[C@@H](CNCc2ccc(Cl)c(Cl)c2)[C@H](O)[C@@H](O)[C@@H]1O | 221 µM
OC[C@H]1O[C@@H](CNCc2ccc(F)cc2)[C@H](O)[C@@H](O)[C@@H]1O | 202 µM
O=[N+]([O-])c1cccc(CNC[C@@H]2O[C@H](CO)[C@@H](O)[C@H](O)[C@H]2O)c1 | 714 µM
COc1ccc(CNC[C@@H]2O[C@H](CO)[C@@H](O)[C@H](O)[C@H]2O)cc1 | 306 µM
COc1ccc(CNC[C@@H]2O[C@H](CO)[C@@H](O)[C@H](O)[C@H]2O)cc1O | 407 µM
COc1cc(CNC[C@@H]2O[C@H](CO)[C@@H](O)[C@H](O)[C@H]2O)ccc1O | 223 µM
COc1ccc(CNC[C@@H]2O[C@H](CO)[C@@H](O)[C@H](O)[C@H]2O)c(OC)c1 | 160 µM
OC[C@H]1O[C@@H](CNCc2cccs2)[C@H](O)[C@@H](O)[C@@H]1O | 324 µM

Each compound was assayed against Alpha-glucosidase MAL12 (Saccharomyces cerevisiae S288c, UniProt P53341) (assay: Inhibition of Saccharomyces cerevisiae alpha-glucosidase assessed as 4-nitrophenol release from 4-nitrophenyl alpha-D-glucopyranoside preincubated for 15 mins measured after 15 mins).
Alpha-glucosidase MAL12, sequence (P53341 whole entry): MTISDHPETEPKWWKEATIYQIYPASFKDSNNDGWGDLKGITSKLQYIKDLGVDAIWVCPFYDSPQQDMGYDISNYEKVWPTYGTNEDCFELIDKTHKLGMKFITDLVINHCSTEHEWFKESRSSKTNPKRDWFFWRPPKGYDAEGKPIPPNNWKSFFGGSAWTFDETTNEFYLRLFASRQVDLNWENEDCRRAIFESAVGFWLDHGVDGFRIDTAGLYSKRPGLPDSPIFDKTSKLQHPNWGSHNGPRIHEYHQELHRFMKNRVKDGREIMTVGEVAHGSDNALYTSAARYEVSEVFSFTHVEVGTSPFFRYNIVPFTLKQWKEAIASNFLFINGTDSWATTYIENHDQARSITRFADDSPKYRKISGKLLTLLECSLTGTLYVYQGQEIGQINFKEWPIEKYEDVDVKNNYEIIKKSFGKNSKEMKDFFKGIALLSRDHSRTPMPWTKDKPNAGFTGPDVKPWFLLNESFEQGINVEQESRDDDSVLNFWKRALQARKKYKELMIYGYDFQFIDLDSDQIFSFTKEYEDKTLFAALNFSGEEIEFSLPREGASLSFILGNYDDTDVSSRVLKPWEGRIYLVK

SMILES | IC50
Cc1ccc(S(=O)(=O)NC[C@@H]2O[C@H](CO)[C@@H](O)[C@H](O)[C@H]2O)cc1 | 101 µM
OC[C@H]1O[C@@H](CNC/C=C/c2ccccc2)[C@H](O)[C@@H](O)[C@@H]1O | 116 µM
O=C(NC[C@@H]1O[C@H](CO)[C@@H](O)[C@H](O)[C@H]1O)c1ccccc1 | 499 µM
O=C(NC[C@@H]1O[C@H](CO)[C@@H](O)[C@H](O)[C@H]1O)c1ccc(Cl)cc1Cl | 466 µM
O=C(NC[C@@H]1O[C@H](CO)[C@@H](O)[C@H](O)[C@H]1O)c1ccc(F)cc1 | 1520 µM
O=C(NC[C@@H]1O[C@H](CO)[C@@H](O)[C@H](O)[C@H]1O)c1cccc([N+](=O)[O-])c1 | 283 µM
O=C(NC[C@@H]1O[C@H](CO)[C@@H](O)[C@H](O)[C@H]1O)c1ccc([N+](=O)[O-])cc1 | 36.2 µM
O=C(NC[C@@H]1O[C@H](CO)[C@@H](O)[C@H](O)[C@H]1O)c1ccccc1O | 470 µM
COc1ccccc1C(=O)NC[C@@H]1O[C@H](CO)[C@@H](O)[C@H](O)[C@H]1O | 471 µM
O=C(NC[C@@H]1O[C@H](CO)[C@@H](O)[C@H](O)[C@H]1O)c1ccc(O)cc1 | 1910 µM
COc1ccc(C(=O)NC[C@@H]2O[C@H](CO)[C@@H](O)[C@H](O)[C@H]2O)cc1 | 231 µM
COc1ccc(C(=O)NC[C@@H]2O[C@H](CO)[C@@H](O)[C@H](O)[C@H]2O)c(OC)c1 | 1860 µM
CC(=O)Oc1ccc(C(=O)NC[C@@H]2O[C@H](CO)[C@@H](O)[C@H](O)[C@H]2O)cc1 | 96.5 µM
O=C(NC[C@@H]1O[C@H](CO)[C@@H](O)[C@H](O)[C@H]1O)c1ccco1 | 534 µM
O=C(NC[C@@H]1O[C@H](CO)[C@@H](O)[C@H](O)[C@H]1O)c1cccs1 | 325 µM
CC(=O)Oc1cc(C(=O)NC[C@@H]2O[C@H](CO)[C@@H](O)[C@H](O)[C@H]2O)cc(OC(C)=O)c1OC(C)=O | 225 µM
O=C(/C=C/c1ccccc1)NC[C@@H]1O[C@H](CO)[C@@H](O)[C@H](O)[C@H]1O | 2.3 µM

SMILES | IC50
O=C(/C=C/c1ccc(O)cc1)NC[C@@H]1O[C@H](CO)[C@@H](O)[C@H](O)[C@H]1O | 5.6 µM
CC(=O)Oc1ccc(/C=C/C(=O)NC[C@@H]2O[C@H](CO)[C@@H](O)[C@H](O)[C@H]2O)cc1 | 142 µM
COc1cc(/C=C/C(=O)NC[C@@H]2O[C@H](CO)[C@@H](O)[C@H](O)[C@H]2O)ccc1O | 102 µM
CC(=O)Oc1ccc(/C=C/C(=O)NC[C@@H]2O[C@H](CO)[C@@H](O)[C@H](O)[C@H]2O)cc1OC(C)=O | 355 µM
OC[C@H]1O[C@@H](CNCc2ccccc2)[C@H](O)[C@@H](O)[C@@H]1O | 39.2 µM
OC[C@H]1O[C@@H](CNCc2ccc(Cl)cc2Cl)[C@H](O)[C@@H](O)[C@@H]1O | 318 µM
OC[C@H]1O[C@@H](CNCc2ccc(Cl)c(Cl)c2)[C@H](O)[C@@H](O)[C@@H]1O | 613 µM
OC[C@H]1O[C@@H](CNCc2ccc(F)cc2)[C@H](O)[C@@H](O)[C@@H]1O | 115 µM
O=[N+]([O-])c1cccc(CNC[C@@H]2O[C@H](CO)[C@@H](O)[C@H](O)[C@H]2O)c1 | 44.3 µM
OC[C@H]1O[C@@H](CNCc2ccccc2O)[C@H](O)[C@@H](O)[C@@H]1O | 156 µM
OC[C@H]1O[C@@H](CNCc2ccc(O)cc2)[C@H](O)[C@@H](O)[C@@H]1O | 149 µM
COc1ccc(CNC[C@@H]2O[C@H](CO)[C@@H](O)[C@H](O)[C@H]2O)cc1 | 457 µM
COc1ccc(CNC[C@@H]2O[C@H](CO)[C@@H](O)[C@H](O)[C@H]2O)cc1O | 465 µM
COc1cc(CNC[C@@H]2O[C@H](CO)[C@@H](O)[C@H](O)[C@H]2O)ccc1O | 377 µM
COc1ccc(CNC[C@@H]2O[C@H](CO)[C@@H](O)[C@H](O)[C@H]2O)c(OC)c1 | 622 µM
COc1ccc(C(C)NC[C@@H]2O[C@H](CO)[C@@H](O)[C@H](O)[C@H]2O)cc1O (stereo partly specified) | 184 µM
OC[C@H]1O[C@@H](CNCc2cccs2)[C@H](O)[C@@H](O)[C@@H]1O | 374 µM

These compounds were tested against T1, Sucrase-isomaltase, intestinal (assay: Competitive inhibition of rat intestinal sucrase using sucrose as substrate by Lineweaver-Burk plot analysis).

SMILES | Ki
CC(=O)Oc1ccc(/C=C/C(=O)NC[C@@H]2O[C@H](CO)[C@@H](O)[C@H](O)[C@H]2O)cc1OC(C)=O | 17.1 µM
